Measurements as given in US20250304700A1, “ANTI-BLOOD DENDRITIC CELL ANTIGEN 2 ANTIBODIES AND USES THEREOF” (Biogen MA Inc., priority 2012, published 2025).

What was measured:
[1] = system: type I IFN subtype transcription in pDCs; experiment: qPCR of type I IFN subtypes in Sm/RNP IC stimulated pDCs; assay type: cell-based, human; conditions: 10 μg/mL BIIB059, 16 hours
Procedure: Sm/RNP immune complexes (IC) were pre-formed by mixing sm-RNP from calf thymus and anti-RNP antibodies purified from sera of SLE patients for 30 minutes in serum-free medium. pDCs from human healthy donors were isolated using a two-step magnetic bead separation procedure (MACS kit, Miltenyi Biotec). […] The plates containing pDC were incubated for 16 hours at 37° C. and 5% CO2. pDC cells were collected and RNA from pDC was isolated for evaluation in qPCR reaction.

[2] = system: CD32a on the surface of pDCs; experiment: CD32 surface expression on isolated pDCs; assay type: cell-based, human
From the text: Treatment with effector competent isotype control had no effect on CD32 surface levels (FIG. 46).
CD40 is a cell surface protein expressed on pDCs. An anti-CD40 antibody with a fully functional Fc has the ability to engage CD40 and bind CD32 on the surface of pDCs.

BIIB059: humanized IgG1 anti-BDCA2 antibody, mature heavy chain SEQ ID NO: 4 and mature light chain SEQ ID NO: 3
transcript level of type I IFN subtypes [1]: inhibited the transcript level of all type I IFN subtypes tested | CD32 MFI ([2]; 10 μg/mL, 1 hour at 4° C.): did not decrease the CD32 MFI | CD32 on the cell surface of pDCs ([2]; 16 hours at 37° C.): able to induce the down-modulation of CD32
